What all share (experiment): NCI anticancer screen, dose series, 48 h
Assay [1] has as its system HL-60(TB) leukemia.
Assay [2] deals with IGROV1 ovarian.
Assay [3] has as its system SNB-19 CNS.
Assay [4] relates to A498 renal.
In assay [5] the test system is HCC-2998 colon.
The test system of assay [6] is SK-MEL-28 melanoma.
Assay [7] deals with DU-145 prostate.
In assay [8] the test system is MDA-MB-435.
The subject of assay [9] is K-562 leukemia.
The subject of assay [10] is HT29 colon.
The test system of assay [11] is PC-3 prostate.
Assay [12] concerns SK-MEL-2 melanoma.
The subject of assay [13] is UO-31 renal.
Assay [14] relates to COLO 205 colon.
Assay [15] relates to SF-268 CNS.
The subject of assay [16] is M14 melanoma.
Assay [17] deals with RXF 393 renal.
Assay [18] deals with NCI-H460 lung.
Assay [19] concerns BT-549 breast.

Structures are written as SMILES.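 Cells were grown in 96-well plates and exposed to each compound for 48 hours at five concentrations; endpoints were interpolated linearly between bracketing concentrations, or set to the highest concentration if not reached. TGI: total growth inhibition.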

For the compound `Cc1ccc(O)c(C(c2ccc([N+](=O)[O-])cc2)c2cc(C)ccc2O)c1`, the TGI in [1] is 7.61 µM; in assay [2], 25.2 µM; in [3], 26.2 µM; in [4], 43 µM; in [5], 9.66 µM; in assay [6] it was 38.4 µM. Besides, the TGI was 27.4 µM in [7]; 28.5 µM in [8]; more than 100 µM in [9]; 30 µM in assay [10]; 14.3 µM in [11]; 23.9 µM in [12]. The TGI was 15.2 µM in assay [13]; 44.1 µM in [14]; 22 µM in assay [15]; 26.7 µM in assay [16]; 26 µM in assay [17].

Regarding `Cc1ccc(S(=O)(=O)n2c3c(c4ccccc42)CCN2C(=O)C(S(=O)(=O)c4ccccc4)=CCC32)cc1` (stereo not drawn), the TGI in [1] was 0.468 µM; in assay [2], 0.36 µM; in assay [3], 1.91 µM; in [4], 0.582 µM; in assay [18] it was 1.51 µM; in assay [5], 0.44 µM. The TGI is 0.353 µM in [6]; 0.375 µM in [7]; 0.445 µM in assay [8]; 0.673 µM in assay [9]; 0.48 µM in assay [10]; 0.562 µM in assay [11]. The TGI in assay [12] worked out at 0.475 µM; in assay [13], 0.384 µM; in assay [14], 0.458 µM; in assay [17], 0.273 µM.

Regarding `Cc1cc2c(cc1Cl)SC(c1ccccc1)C(=O)NS2(=O)=O` (stereo not drawn), the TGI in assay [1] was 58.9 µM; in assay [2] it was more than 100 µM; in assay [4] it was 75.5 µM; in assay [18], 86.1 µM; in assay [5] it was 70.8 µM; in assay [6], more than 100 µM. For the same compound, the TGI was more than 100 µM in [7]; more than 100 µM in assay [8]; more than 100 µM in [9]; more than 100 µM in [10]; 70.7 µM in assay [11]; 32.9 µM in [12]. For the same compound, the TGI in [13] was 75.1 µM; in assay [15], more than 100 µM; in [16], more than 100 µM; in assay [17], more than 100 µM.

`O=[N+]([O-])c1ccc2[nH]nc(OCc3ccccn3)c2c1`: the TGI in [1], in [2], in assay [3], in [4], in [18] and in assay [5] was more than 100 µM throughout. Besides, the TGI in assay [6], in [7], in assay [8], in assay [9], in assay [10] and in assay [11] was more than 100 µM each time. Also, the TGI in [12], in assay [13], in assay [14], in assay [15], in [16] and in assay [17] was more than 100 µM in each case.

As for `O=C1CCCC2C(O)CCC[C@H]12` (stereo partly drawn), the TGI in [1], in assay [2], in [3], in assay [18], in assay [5] and in assay [6] was more than 100 µM throughout. Moreover, the TGI in assay [7], in [9], in [10], in assay [11], in assay [12] and in assay [19] was more than 100 µM in each case. Further, the TGI in assay [13], in assay [14], in assay [15], in assay [16] and in assay [17] was more than 100 µM each time.

For the compound `C=CCOC(=O)Cn1cc(C)c(=O)[nH]c1=O`, the TGI in assay [1], in [2], in [3], in [4], in assay [18] and in assay [5] was more than 100 µM throughout. Also, the TGI in assay [6], in [7], in assay [8], in assay [9], in assay [10] and in assay [11] was more than 100 µM in each case. Moreover, the TGI in [12], in assay [13], in assay [14], in assay [15] and in assay [16] was more than 100 µM each time.

For `O=c1[nH]c2ccc(Cl)cc2c2oc(-c3ccccc3)nc12`, the TGI in [2] was more than 100 µM; in assay [3], 43.1 µM; in [4], 43.4 µM; in assay [18] it was 36.9 µM; in [5] it was 79 µM; in [8], more than 100 µM. The TGI in [9] is more than 100 µM; in [10], more than 100 µM; in assay [11], more than 100 µM; in assay [12], 57.5 µM; in assay [19], more than 100 µM; in assay [13], 44.2 µM. Also, the TGI was more than 100 µM in assay [14], more than 100 µM in assay [15], more than 100 µM in assay [16] and 71.8 µM in assay [17].

As for `COc1cc(/C=N/n2c(Cc3ccc(Cl)cc3)n[nH]c2=O)cc(OC)c1OC`, the TGI in assay [3], in [4], in assay [18], in [5], in assay [6] and in assay [8] was more than 100 µM each time. For the same compound, the TGI in [9], in [10], in assay [11], in [12], in assay [19] and in [13] was more than 100 µM throughout. Further, the TGI in assay [14], in assay [15], in [16] and in assay [17] was more than 100 µM throughout.

Source of the values: PubChem BioAssay (NCI).
